pIC50: −log10 of the molar value. Bounds are passed on as bounds.

Drawing on ChEMBL document CHEMBL4477252, “Optimization of microtubule affinity regulating kinase (MARK) inhibitors with improved physical properties” (Bioorg Med Chem Lett, 2016), this text covers efflux ratio and IC50 for four compounds.

In one data set the target is MDR1 (ABCB1, P-glycoprotein) (Homo sapiens, UniProt P08183). The experiment in a line: Substrate activity at human MDR1 expressed in LLC-PK1 cells assessed as efflux ratio of permeability across basolateral to apical over apical to basolateral side at 5 uM. The data set is classed as ADME, cell-based.
Chain of MDR1 (ABCB1, P-glycoprotein) (P08183 whole entry): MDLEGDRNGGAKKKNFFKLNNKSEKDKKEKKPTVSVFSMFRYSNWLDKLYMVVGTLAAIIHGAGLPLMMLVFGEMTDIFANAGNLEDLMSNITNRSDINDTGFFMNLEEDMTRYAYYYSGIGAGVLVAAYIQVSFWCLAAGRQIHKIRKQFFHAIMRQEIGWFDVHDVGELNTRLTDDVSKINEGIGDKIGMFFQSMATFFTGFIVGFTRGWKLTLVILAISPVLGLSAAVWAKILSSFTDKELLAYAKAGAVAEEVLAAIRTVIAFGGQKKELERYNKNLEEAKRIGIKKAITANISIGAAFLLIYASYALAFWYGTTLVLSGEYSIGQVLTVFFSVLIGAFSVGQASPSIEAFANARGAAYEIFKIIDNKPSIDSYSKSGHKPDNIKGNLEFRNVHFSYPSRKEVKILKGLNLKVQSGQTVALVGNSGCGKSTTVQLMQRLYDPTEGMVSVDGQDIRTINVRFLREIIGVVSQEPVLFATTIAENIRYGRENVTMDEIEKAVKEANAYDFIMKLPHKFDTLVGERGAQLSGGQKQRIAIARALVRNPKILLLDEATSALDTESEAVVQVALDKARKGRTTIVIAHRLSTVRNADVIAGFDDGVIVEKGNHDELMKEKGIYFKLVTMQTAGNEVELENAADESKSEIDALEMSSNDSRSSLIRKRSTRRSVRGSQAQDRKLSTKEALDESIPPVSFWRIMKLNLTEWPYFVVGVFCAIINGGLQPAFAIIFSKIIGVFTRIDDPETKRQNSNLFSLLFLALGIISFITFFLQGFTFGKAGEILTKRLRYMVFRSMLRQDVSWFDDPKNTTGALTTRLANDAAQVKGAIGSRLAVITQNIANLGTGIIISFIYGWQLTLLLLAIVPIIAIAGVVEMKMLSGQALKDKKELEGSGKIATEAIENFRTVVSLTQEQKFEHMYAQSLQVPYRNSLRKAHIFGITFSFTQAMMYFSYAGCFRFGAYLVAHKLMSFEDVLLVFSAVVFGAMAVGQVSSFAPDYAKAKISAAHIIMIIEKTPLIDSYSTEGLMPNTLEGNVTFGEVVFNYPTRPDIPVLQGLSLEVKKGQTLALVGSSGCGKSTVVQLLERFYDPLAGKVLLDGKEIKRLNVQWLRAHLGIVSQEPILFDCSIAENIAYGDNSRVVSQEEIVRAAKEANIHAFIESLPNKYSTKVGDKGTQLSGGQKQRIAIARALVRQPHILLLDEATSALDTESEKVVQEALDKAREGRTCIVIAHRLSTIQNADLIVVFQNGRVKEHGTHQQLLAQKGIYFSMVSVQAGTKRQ
For orientation: efflux ratio means the permeability from basolateral to apical divided by that in the opposite direction, in the common usage. Consider `Cn1cc(-c2cnc3c(-c4csc(C(=O)NCC(F)(F)F)c4)cnn3c2)cn1`, for which the efflux ratio at 5 µM came to 1.4.
For the compound `Cc1sc(C(=O)N[C@@H]2[C@H](N)CCCC2(F)F)cc1-c1cnn2cc(Cl)cnc12`, the efflux ratio at 5 µM was 2.9.
Still for that read-out and setting: the value for `Cn1cc(-c2cnc3c(-c4csc(C(=O)N[C@@H]5CCCC[C@@H]5N)c4)cnn3c2)cn1` (racemic) was 24.

Another data set has as its target AMP-activated protein kinase (AMPK) alpha-1/beta-1/gamma-1 (Homo sapiens, UniProt P54619+Q13131+Q9Y478). The data set is described as follows: Inhibition of full-length recombinant human GST and His-tagged AMPK alpha1/beta1/gamma1 expressed in baculovirus expression system by LanthaScreen assay. A general note: TR-FRET usually uses a lanthanide donor and a delayed reading to cut background.
A word on the pIC50: it is the IC50 on a negative log10 scale, so that one unit is a factor of ten. For `O=C(NCC(F)(F)F)c1cc(-c2cnn3cc(-c4ccc(OCCN5CCCCC5)cc4)cnc23)cs1`, the pIC50 is > 8.00.
Regarding `Cn1cc(-c2cnc3c(-c4csc(C(=O)NCC(F)(F)F)c4)cnn3c2)cn1`, the pIC50 is 7.59.
`Cc1sc(C(=O)N[C@@H]2[C@H](N)CCCC2(F)F)cc1-c1cnn2cc(Cl)cnc12`: the pIC50 was 7.28.
Consider `Cn1cc(-c2cnc3c(-c4csc(C(=O)N[C@@H]5CCCC[C@@H]5N)c4)cnn3c2)cn1` (racemic), for which the pIC50 was 8.34.

The next data set deals with Cyclin-dependent kinase 5/CDK5 activator 1 (Homo sapiens, UniProt Q00535). The experiment in a line: Inhibition of full-length recombinant human GST and His-tagged CDK5/P25 expressed in baculovirus expression system by Z'-LYTE assay.
Chain of Cyclin-dependent kinase 5/CDK5 activator 1 (Q00535 whole entry): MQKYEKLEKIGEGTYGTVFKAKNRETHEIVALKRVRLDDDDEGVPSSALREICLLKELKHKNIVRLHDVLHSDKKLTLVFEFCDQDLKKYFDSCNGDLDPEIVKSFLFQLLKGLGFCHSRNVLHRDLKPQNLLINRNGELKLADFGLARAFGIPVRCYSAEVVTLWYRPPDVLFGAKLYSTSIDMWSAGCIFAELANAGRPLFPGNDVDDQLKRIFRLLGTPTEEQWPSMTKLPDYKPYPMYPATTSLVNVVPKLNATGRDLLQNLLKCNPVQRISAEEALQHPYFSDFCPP
Chain of Cyclin-dependent kinase 5/CDK5 activator 1 (Q15078 whole entry, further chain): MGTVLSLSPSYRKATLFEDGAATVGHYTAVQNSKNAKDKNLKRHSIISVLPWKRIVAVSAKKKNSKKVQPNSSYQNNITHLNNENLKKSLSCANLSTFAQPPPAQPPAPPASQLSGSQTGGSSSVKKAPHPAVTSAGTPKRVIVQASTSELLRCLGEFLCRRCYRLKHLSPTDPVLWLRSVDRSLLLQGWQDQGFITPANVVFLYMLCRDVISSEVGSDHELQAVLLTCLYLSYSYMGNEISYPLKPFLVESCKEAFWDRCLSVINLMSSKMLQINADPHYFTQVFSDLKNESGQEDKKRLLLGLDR
In the case of `O=C(NCC(F)(F)F)c1cc(-c2cnn3cc(-c4ccc(OCCN5CCCCC5)cc4)cnc23)cs1`, the pIC50 was 7.72.
Consider `Cn1cc(-c2cnc3c(-c4csc(C(=O)NCC(F)(F)F)c4)cnn3c2)cn1`, for which the pIC50 was > 8.00.
The same measure, in the same setting: the value for `Cc1sc(C(=O)N[C@@H]2[C@H](N)CCCC2(F)F)cc1-c1cnn2cc(Cl)cnc12` was 7.21; that for `Cn1cc(-c2cnc3c(-c4csc(C(=O)N[C@@H]5CCCC[C@@H]5N)c4)cnn3c2)cn1` (racemic) was 8.36.

The target in another data set is Cyclin-dependent kinase 7 (Homo sapiens, UniProt P50613). The data set is described as follows: Inhibition of full-length recombinant human His-tagged CDK7 expressed in baculovirus expression system by Adapta assay.
Chain of Cyclin-dependent kinase 7 (P50613 whole entry): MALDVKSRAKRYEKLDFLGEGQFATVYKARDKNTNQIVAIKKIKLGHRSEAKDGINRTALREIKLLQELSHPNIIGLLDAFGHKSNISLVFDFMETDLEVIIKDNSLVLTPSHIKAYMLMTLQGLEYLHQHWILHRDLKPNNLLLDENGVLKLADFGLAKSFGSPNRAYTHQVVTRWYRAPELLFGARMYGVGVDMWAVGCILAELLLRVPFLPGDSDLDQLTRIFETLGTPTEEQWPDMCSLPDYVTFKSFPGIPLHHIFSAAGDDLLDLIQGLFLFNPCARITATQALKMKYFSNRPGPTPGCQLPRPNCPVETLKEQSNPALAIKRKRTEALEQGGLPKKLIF
Consider `O=C(NCC(F)(F)F)c1cc(-c2cnn3cc(-c4ccc(OCCN5CCCCC5)cc4)cnc23)cs1`, for which the pIC50 was 7.52.
For the compound `Cn1cc(-c2cnc3c(-c4csc(C(=O)NCC(F)(F)F)c4)cnn3c2)cn1`, the pIC50 was 7.28.
On to `Cc1sc(C(=O)N[C@@H]2[C@H](N)CCCC2(F)F)cc1-c1cnn2cc(Cl)cnc12`, for which the negative-log IC50 (pIC50) was > 8.00.
As to `Cn1cc(-c2cnc3c(-c4csc(C(=O)N[C@@H]5CCCC[C@@H]5N)c4)cnn3c2)cn1` (racemic), the pIC50 was 8.39.

A further data set deals with CDK9/cyclin T1 (Homo sapiens, UniProt P50750). The data set is described as follows: Inhibition of full-length recombinant human His-tagged CDK9/cyclin T1 expressed in baculovirus expression system by Adapta assay.
Chain of CDK9/cyclin T1 (O60563 whole entry): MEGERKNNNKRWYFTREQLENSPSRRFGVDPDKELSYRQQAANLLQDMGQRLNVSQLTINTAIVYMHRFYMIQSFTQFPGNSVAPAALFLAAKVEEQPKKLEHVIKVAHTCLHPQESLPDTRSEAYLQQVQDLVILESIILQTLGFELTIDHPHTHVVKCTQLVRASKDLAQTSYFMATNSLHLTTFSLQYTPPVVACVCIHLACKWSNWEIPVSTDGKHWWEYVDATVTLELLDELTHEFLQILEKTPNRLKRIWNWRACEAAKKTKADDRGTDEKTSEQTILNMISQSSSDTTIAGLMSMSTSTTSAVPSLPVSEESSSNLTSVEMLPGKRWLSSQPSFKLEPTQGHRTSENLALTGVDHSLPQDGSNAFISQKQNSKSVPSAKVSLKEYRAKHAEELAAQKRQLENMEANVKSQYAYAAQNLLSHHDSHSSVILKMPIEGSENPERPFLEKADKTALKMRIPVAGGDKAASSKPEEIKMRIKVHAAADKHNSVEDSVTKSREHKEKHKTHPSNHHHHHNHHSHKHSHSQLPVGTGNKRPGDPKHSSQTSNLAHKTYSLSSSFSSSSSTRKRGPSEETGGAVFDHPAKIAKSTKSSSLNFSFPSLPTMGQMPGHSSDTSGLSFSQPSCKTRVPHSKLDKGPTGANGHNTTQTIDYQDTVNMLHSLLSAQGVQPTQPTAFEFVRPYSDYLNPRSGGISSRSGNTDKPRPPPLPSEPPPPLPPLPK
Chain of CDK9/cyclin T1 (P50750 whole entry): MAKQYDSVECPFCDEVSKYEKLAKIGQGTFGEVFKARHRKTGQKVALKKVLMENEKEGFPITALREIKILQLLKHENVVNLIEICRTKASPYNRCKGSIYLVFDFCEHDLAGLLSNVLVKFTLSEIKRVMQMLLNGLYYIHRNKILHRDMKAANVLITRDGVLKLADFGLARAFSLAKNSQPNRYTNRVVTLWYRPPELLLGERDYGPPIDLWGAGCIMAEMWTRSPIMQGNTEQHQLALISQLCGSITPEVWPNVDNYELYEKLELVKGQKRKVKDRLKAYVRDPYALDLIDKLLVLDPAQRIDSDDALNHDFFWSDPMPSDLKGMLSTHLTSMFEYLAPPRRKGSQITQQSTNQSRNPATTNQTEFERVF
Consider `O=C(NCC(F)(F)F)c1cc(-c2cnn3cc(-c4ccc(OCCN5CCCCC5)cc4)cnc23)cs1`, for which the pIC50 is 7.35.
Still for that read-out and setting: with `Cn1cc(-c2cnc3c(-c4csc(C(=O)NCC(F)(F)F)c4)cnn3c2)cn1` the figure was 7.46.
Same read-out and setting: the value for `Cc1sc(C(=O)N[C@@H]2[C@H](N)CCCC2(F)F)cc1-c1cnn2cc(Cl)cnc12` was 6.62; that for `Cn1cc(-c2cnc3c(-c4csc(C(=O)N[C@@H]5CCCC[C@@H]5N)c4)cnn3c2)cn1` (racemic) was 7.92.

A further data set has as its target T1, Serine/threonine-protein kinase Chk1 (Homo sapiens, UniProt O14757).
T1 sequence (O14757 whole entry): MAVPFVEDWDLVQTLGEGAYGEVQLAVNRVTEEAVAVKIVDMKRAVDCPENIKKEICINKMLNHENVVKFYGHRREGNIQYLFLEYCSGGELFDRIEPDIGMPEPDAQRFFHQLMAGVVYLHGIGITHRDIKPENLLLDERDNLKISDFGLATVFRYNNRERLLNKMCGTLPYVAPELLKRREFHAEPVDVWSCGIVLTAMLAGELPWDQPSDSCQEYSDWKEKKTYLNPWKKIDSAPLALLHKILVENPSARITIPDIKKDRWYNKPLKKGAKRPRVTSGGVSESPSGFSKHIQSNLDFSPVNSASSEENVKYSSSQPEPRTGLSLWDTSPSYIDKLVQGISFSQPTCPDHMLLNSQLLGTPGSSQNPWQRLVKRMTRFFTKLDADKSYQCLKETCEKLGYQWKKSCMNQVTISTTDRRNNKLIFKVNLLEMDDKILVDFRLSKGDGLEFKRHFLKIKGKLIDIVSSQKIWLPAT
The data set is described as follows: Inhibition of full-length recombinant human His-tagged CHEK1 expressed in baculovirus expression system by Z'-LYTE assay.
Turning to `O=C(NCC(F)(F)F)c1cc(-c2cnn3cc(-c4ccc(OCCN5CCCCC5)cc4)cnc23)cs1`, the pIC50 was 7.24.
On to `Cn1cc(-c2cnc3c(-c4csc(C(=O)NCC(F)(F)F)c4)cnn3c2)cn1`, for which the negative-log IC50 (pIC50) was 6.72.
Take `Cc1sc(C(=O)N[C@@H]2[C@H](N)CCCC2(F)F)cc1-c1cnn2cc(Cl)cnc12`: the pIC50 is 6.70.
As to `Cn1cc(-c2cnc3c(-c4csc(C(=O)N[C@@H]5CCCC[C@@H]5N)c4)cnn3c2)cn1` (racemic), the pIC50 is 8.66.

The target of another data set is T2, Receptor-type tyrosine-protein kinase FLT3 (Homo sapiens, UniProt P36888).
T2 sequence (P36888 whole entry): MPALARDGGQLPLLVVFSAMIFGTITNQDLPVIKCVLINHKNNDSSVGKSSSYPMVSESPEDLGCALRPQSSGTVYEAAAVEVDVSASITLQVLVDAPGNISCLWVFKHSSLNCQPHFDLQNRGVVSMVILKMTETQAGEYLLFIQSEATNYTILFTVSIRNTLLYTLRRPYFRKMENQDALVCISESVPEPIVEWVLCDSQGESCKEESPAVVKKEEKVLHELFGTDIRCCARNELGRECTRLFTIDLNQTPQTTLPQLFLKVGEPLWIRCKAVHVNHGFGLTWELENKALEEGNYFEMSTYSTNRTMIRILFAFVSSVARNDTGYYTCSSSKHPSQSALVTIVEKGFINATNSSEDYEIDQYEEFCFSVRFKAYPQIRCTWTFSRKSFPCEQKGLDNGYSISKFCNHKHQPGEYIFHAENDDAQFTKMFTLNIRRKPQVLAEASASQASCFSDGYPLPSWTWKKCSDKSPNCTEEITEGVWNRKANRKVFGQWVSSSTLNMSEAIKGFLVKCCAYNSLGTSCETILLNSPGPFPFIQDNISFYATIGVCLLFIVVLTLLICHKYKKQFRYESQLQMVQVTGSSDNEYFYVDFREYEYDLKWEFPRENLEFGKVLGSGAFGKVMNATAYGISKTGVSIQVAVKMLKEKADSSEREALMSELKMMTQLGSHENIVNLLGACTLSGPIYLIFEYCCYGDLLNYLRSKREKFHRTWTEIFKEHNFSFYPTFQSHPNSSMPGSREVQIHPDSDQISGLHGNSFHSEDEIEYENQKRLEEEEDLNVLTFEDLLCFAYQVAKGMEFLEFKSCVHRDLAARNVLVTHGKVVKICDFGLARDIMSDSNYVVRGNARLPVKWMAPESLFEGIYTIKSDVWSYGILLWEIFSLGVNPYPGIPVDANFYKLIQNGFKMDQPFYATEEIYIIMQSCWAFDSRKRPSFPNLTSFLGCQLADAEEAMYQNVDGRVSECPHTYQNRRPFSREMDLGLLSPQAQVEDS
The experiment in a line: Inhibition of recombinant human His-tagged cytoplasmic FLT3 expressed in baculovirus expression system by Z'-LYTE assay.
In the case of `O=C(NCC(F)(F)F)c1cc(-c2cnn3cc(-c4ccc(OCCN5CCCCC5)cc4)cnc23)cs1`, the pIC50 is > 8.00.
Same read-out and setting: the value for `Cn1cc(-c2cnc3c(-c4csc(C(=O)NCC(F)(F)F)c4)cnn3c2)cn1` was > 8.00; that for `Cc1sc(C(=O)N[C@@H]2[C@H](N)CCCC2(F)F)cc1-c1cnn2cc(Cl)cnc12` was 6.24.
Regarding `Cn1cc(-c2cnc3c(-c4csc(C(=O)N[C@@H]5CCCC[C@@H]5N)c4)cnn3c2)cn1` (racemic), the pIC50 was 8.72.

In a further data set the target is Interleukin-1 receptor-associated kinase 1 (Homo sapiens, UniProt P51617). The data set is described as follows: Inhibition of recombinant human GST-tagged IRAK1 (194 to 712 residues) catalytic domain expressed in baculovirus expression system by Adapta assay.
Chain of Interleukin-1 receptor-associated kinase 1 (P51617 whole entry, the tested form may be a part): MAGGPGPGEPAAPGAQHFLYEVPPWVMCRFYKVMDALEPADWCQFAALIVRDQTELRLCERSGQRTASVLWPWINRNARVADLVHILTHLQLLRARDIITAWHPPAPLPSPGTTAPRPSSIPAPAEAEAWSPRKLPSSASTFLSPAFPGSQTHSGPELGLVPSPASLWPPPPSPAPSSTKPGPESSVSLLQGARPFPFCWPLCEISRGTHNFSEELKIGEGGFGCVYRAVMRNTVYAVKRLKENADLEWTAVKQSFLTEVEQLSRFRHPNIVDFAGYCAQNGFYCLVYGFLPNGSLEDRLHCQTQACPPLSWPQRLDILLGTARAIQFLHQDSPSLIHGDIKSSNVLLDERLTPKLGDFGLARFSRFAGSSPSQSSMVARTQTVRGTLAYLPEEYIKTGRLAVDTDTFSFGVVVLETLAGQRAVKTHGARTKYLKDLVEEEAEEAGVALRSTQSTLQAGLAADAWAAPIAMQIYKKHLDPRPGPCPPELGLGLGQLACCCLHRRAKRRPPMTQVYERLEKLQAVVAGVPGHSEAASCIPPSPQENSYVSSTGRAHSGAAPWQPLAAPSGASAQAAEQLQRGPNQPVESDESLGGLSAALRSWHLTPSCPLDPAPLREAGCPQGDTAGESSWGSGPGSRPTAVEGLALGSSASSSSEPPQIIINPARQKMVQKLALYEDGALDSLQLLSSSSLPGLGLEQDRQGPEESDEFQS
In the case of `O=C(NCC(F)(F)F)c1cc(-c2cnn3cc(-c4ccc(OCCN5CCCCC5)cc4)cnc23)cs1`, the pIC50 is > 8.00.
On to `Cn1cc(-c2cnc3c(-c4csc(C(=O)NCC(F)(F)F)c4)cnn3c2)cn1`, for which the pIC50 was 7.72.
For the compound `Cc1sc(C(=O)N[C@@H]2[C@H](N)CCCC2(F)F)cc1-c1cnn2cc(Cl)cnc12`, the pIC50 is 5.72.
In the case of `Cn1cc(-c2cnc3c(-c4csc(C(=O)N[C@@H]5CCCC[C@@H]5N)c4)cnn3c2)cn1` (racemic), the pIC50 is 8.05.

A further data set addresses PI3-kinase p110-delta/p85-alpha (Homo sapiens, UniProt O00329). The experiment in a line: Inhibition of full-length recombinant human His-tagged PIK3P110D/P85A expressed in baculovirus expression system by Adapta assay.
`O=C(NCC(F)(F)F)c1cc(-c2cnn3cc(-c4ccc(OCCN5CCCCC5)cc4)cnc23)cs1`: the pIC50 is 4.26.
`Cn1cc(-c2cnc3c(-c4csc(C(=O)NCC(F)(F)F)c4)cnn3c2)cn1`: the pIC50 is 5.82.
Consider `Cc1sc(C(=O)N[C@@H]2[C@H](N)CCCC2(F)F)cc1-c1cnn2cc(Cl)cnc12`, for which the pIC50 was < 4.00.
On to `Cn1cc(-c2cnc3c(-c4csc(C(=O)N[C@@H]5CCCC[C@@H]5N)c4)cnn3c2)cn1` (racemic), for which the pIC50 was 5.48.

For another data set, the target named is Sphingosine kinase 1 (Homo sapiens, UniProt Q9NYA1). The experiment in a line: Inhibition of full-length recombinant human GST-tagged SPHK1 by Z'-LYTE assay.
Chain of Sphingosine kinase 1 (Q9NYA1 whole entry): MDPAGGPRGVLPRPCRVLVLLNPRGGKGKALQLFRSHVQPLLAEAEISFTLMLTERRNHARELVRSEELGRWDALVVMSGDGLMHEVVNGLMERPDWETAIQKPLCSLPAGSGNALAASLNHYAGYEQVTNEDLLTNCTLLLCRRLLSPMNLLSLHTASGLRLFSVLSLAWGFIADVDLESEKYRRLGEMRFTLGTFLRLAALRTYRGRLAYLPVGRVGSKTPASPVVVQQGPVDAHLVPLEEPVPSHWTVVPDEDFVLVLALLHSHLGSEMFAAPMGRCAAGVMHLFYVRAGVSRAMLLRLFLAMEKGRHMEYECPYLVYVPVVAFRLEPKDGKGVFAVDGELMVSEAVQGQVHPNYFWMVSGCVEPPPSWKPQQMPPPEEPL
In the case of `O=C(NCC(F)(F)F)c1cc(-c2cnn3cc(-c4ccc(OCCN5CCCCC5)cc4)cnc23)cs1`, the pIC50 was 4.49.
On the same count and under the same terms, the value for `Cn1cc(-c2cnc3c(-c4csc(C(=O)NCC(F)(F)F)c4)cnn3c2)cn1` was < 4.00; that for `Cc1sc(C(=O)N[C@@H]2[C@H](N)CCCC2(F)F)cc1-c1cnn2cc(Cl)cnc12` was < 4.00.
Regarding `Cn1cc(-c2cnc3c(-c4csc(C(=O)N[C@@H]5CCCC[C@@H]5N)c4)cnn3c2)cn1` (racemic), the pIC50 was < 5.00.
